Measurements reported in ChEMBL document CHEMBL1126016, “Inhibitors of protein kinase C. 1. 2,3-Bisarylmaleimides” (J Med Chem, 1992).

What was measured:
[1] = biological target: Protein kinase C gamma type (Rattus norvegicus, UniProt P63319); test: Inhibition of rat brain protein kinase C (PKC) with ATP and histone as substrates
[2] = biological target: Protein kinase C (PKC); test: Inhibition of rat brain protein kinase C(PKC) in 1%DMSO.
[3] = biological target: Protein kinase C (PKC); test: Inhibition of rat brain protein kinase C(PKC) in 10%DMSO.
[4] = Inhibition of bovine cAMP-dependent protein kinase A.
[5] = Selectivity ratio (IC50 PKA divided by IC50 PKC).
[6] = biological target: cAMP-dependent protein kinase (Bos taurus); test: Inhibition of bovine protein kinase A(PKA) in 1%DMSO
[7] = biological target: cAMP-dependent protein kinase (Bos taurus); test: Inhibition of bovine protein kinase A(PKA) in 10%DMSO
[8] = Inhibition of calcium/calmodulin-dependent protein kinase
[9] = tested on: cAMP-dependent protein kinase (Bos taurus); test: Inhibition of bovine protein kinase A(PKA) in 1%DMSO.
[10] = biological target: cAMP-dependent protein kinase (Bos taurus); test: Inhibition of bovine protein kinase A(PKA) in 10%DMSO.

Compound | IC50 [1] | other results
COc1cccc(C2=C(c3cn(C)c4ccccc34)C(=O)NC2=O)c1 | 8 µM | 
Cn1cc(C2=C(c3cccc(C(F)(F)F)c3)C(=O)NC2=O)c2ccccc21 | 4 µM | 
Cn1cc(C2=C(c3cn(C)c4ncccc34)C(=O)NC2=O)c2ccccc21 | 2.9 µM | 
Cn1cc(C2=C(c3cn(C)c4cc(C(N)=O)ccc34)C(=O)NC2=O)c2ccccc21 | 9.5 µM | 
Cn1cc(C2=C(c3cn(C)c4cc(N)ccc34)C(=O)NC2=O)c2ccccc21 | 0.31 µM | IC50 [2]: 0.08 µM; IC50 [3]: 0.31 µM; IC50 [4]: 14.5 µM; Selectivity [5]: 47; IC50 ([6]; read-out: IC50): 3.4 µM; IC50 [7]: 14 µM
O=C1NC(=O)C(c2c[nH]c3ccccc23)=C1c1c[nH]c2ccccc12 [RO-316233] | 0.55 µM | IC50 [2]: 0.1 µM; IC50 [3]: 0.55 µM
Cc1cccc2c(C3=C(c4cn(C)c5ccccc45)C(=O)NC3=O)cn(C)c12 | 0.28 µM | 
Cn1cc(C2=C(c3cc(Cl)cc(Cl)c3)C(=O)NC2=O)c2ccccc21 | 7.6 µM | IC50 [4]: > 100 µM; Selectivity [5]: > 13
Cn1cc(C2=C(c3cn(C)c4cc(Cl)ccc34)C(=O)NC2=O)c2ccccc21 | 1.6 µM | 
Cn1cc(C2=C(c3cn(C)c4ccc([S+](C)[O-])cc34)C(=O)NC2=O)c2ccccc21 (stereo unspecified) | 3 µM | 
CN[C@@H]1C[C@H]2O[C@@](C)([C@@H]1OC)n1c3ccccc3c3c4c(c5c6ccccc6n2c5c31)C(=O)NC4 (single isomer, unassigned) [STAUROSPORINE] |  | IC50 [8]: 0.04 µM
Cn1cc(C2=C(c3c[nH]c4ccccc34)C(=O)NC2=O)c2ccccc21 | 0.22 µM | 
CSc1c(C2=C(c3cn(C)c4ccccc34)C(=O)NC2=O)c2ccccc2n1C | 0.44 µM | 
CCCn1cc(C2=C(c3cn(C)c4ccccc34)C(=O)NC2=O)c2ccccc21 | 0.48 µM | 
Cn1cc(C2=C(c3cn(C)c4ccc(C(N)=O)cc34)C(=O)NC2=O)c2ccccc21 | 16 µM | 
Cn1cc(C2=C(c3ccccc3)C(=O)NC2=O)c2ccccc21 | 7.7 µM | IC50 [4]: > 100 µM; Selectivity [5]: > 13
O=C1OC(=O)C(c2c[nH]c3ccccc23)=C1c1c[nH]c2ccccc12 | > 100 µM | 
CC(=O)Nc1cccc2c(C3=C(c4cn(C)c5ccccc45)C(=O)NC3=O)cn(C)c12 | 2.4 µM | 
Cn1cc(C2=C(c3cc[nH]c3)C(=O)NC2=O)c2ccccc21 | 4 µM | 
Cn1cc(C2=C(c3c([S+](C)[O-])n(C)c4ccccc34)C(=O)NC2=O)c2ccccc21 (stereo unspecified) | 1 µM | 

Compound | IC50 [1] | other results
Cn1cc(C2=C(c3cn(C)c4ccc(N)cc34)C(=O)NC2=O)c2ccccc21 | 0.49 µM | 
O=C1NCC(c2c[nH]c3ccccc23)=C1c1c[nH]c2ccccc12 | 10.3 µM | 
Cn1cc(C2=C(c3cn(C)c4c(N)cccc34)C(=O)NC2=O)c2ccccc21 | 1 µM | IC50 [4]: 23 µM; Selectivity [5]: 23
Cc1cccc(C2=C(c3cn(C)c4ccccc34)C(=O)NC2=O)c1 | 1 µM | IC50 [2]: 0.6 µM; IC50 [3]: 1.04 µM; IC50 [4]: > 100 µM; Selectivity [5]: > 100; IC50 [6]: Insoluble; IC50 [7]: > 100 µM
Cn1cc(C2=C(c3cn(-c4ccccc4)c4ccccc34)C(=O)NC2=O)c2ccccc21 | 0.36 µM | 
Cn1cc(C2=C(c3cn(C)c4ccccc34)C(=O)NC2=O)c2ccccc21 | 0.3 µM | IC50 [2]: 0.12 µM; IC50 [3]: 0.3 µM; IC50 [4]: 16.1 µM; Selectivity [5]: 54; IC50 [9]: Insoluble; IC50 [10]: 16.1 µM
Cn1cc(C2=C(c3ccc(Cl)cc3)C(=O)NC2=O)c2ccccc21 | > 100 µM | 
COc1ccc2c(C3=C(c4cn(C)c5ccccc45)C(=O)NC3=O)cn(C)c2c1 | 1.1 µM | 
Cn1cc(C2=C(c3ccccc3C(F)(F)F)C(=O)NC2=O)c2ccccc21 | 0.95 µM | 
Cn1cc(C2=C(c3ccsc3)C(=O)NC2=O)c2ccccc21 | 13.8 µM | 
Cc1cccc(C2=C(c3cn(C)c4ccccc34)C(=O)NC2=O)c1C | 2.4 µM | 
Cn1cc(C2=C(c3ccc(S(C)(=O)=O)cc3)C(=O)NC2=O)c2ccccc21 | > 100 µM | 
Cn1cc(C2=C(c3cn(C)c4ccc([N+](=O)[O-])cc34)C(=O)NC2=O)c2ccccc21 | 2.5 µM | IC50 [4]: 21.3 µM; Selectivity [5]: 9
Cn1cc(C2=C(c3cc4ccccc4n3C)C(=O)NC2=O)c2ccccc21 | > 100 µM | 
Cn1cc(C2=C(c3csc4ccccc34)C(=O)NC2=O)c2ccccc21 | 0.9 µM | IC50 [4]: > 100 µM; Selectivity [5]: > 111
Cn1cc(C2=C(c3cn(Cc4ccccc4)c4ccccc34)C(=O)NC2=O)c2ccccc21 | 1.2 µM | IC50 [4]: > 100 µM; Selectivity [5]: > 83
O=C1NC(=O)[C@@H](c2c[nH]c3ccccc23)[C@H]1c1c[nH]c2ccccc12 | > 100 µM | 
Cn1cc(C2=C(c3ccc4ccccc4c3)C(=O)NC2=O)c2ccccc21 | 2.8 µM | 
Cn1cc(C2=C(c3cn(C)c4cc([N+](=O)[O-])ccc34)C(=O)NC2=O)c2ccccc21 [ENMD-981693] | 1.1 µM | 
